In ChEMBL document CHEMBL1154915, “Selection of inhibitory peptides for Aurora-A kinase from a phage-displayed library of helix-loop-helix peptides” (Bioorg Med Chem Lett, 2010):
Calls of active or inactive are those of the source.

Legend:
[1] = biological target: T1, Aurora kinase A (Homo sapiens) (UniProt O14965); assay: Binding affinity to GST-tagged Aurora A after 1 hr by ELISA
T1 sequence (whole entry): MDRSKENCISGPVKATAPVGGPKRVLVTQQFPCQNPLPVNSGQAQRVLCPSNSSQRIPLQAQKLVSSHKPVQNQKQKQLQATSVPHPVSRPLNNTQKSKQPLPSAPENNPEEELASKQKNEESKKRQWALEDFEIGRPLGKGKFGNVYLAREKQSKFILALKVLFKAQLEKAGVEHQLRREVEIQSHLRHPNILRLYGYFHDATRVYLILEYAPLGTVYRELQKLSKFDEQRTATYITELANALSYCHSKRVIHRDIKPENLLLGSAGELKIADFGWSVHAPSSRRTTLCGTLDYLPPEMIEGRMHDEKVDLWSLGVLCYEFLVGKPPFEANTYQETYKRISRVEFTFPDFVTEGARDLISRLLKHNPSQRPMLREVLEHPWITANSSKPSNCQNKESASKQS

[2] = biological target: T1, Aurora kinase A (Homo sapiens); assay: Inhibition of Aurora A at 100 uM by IMAP fluorescence polarization assay
[3] = biological target: T1, Aurora kinase A (Homo sapiens); assay: Inhibition of Aurora A at 10 uM by IMAP fluorescence polarization assay

Molecule	Activity [1]	inhibition [2]	inhibition [3] [%]
H-AELAALEAELAALEGRRVVVSFAWDGKLAALKAKLAALKA-OH	Active	35%	–
H-GRRVVVAFAWD-NH2	–	inactive	–
H-AELAALEAELAALEGERRLIIFNSGKLAALKAKLAALKA-OH	Active	20%	–
H-AELAALEAELAALEGGGGGGGKLAALKAKLAALKAY-NH2	inactive	inactive	–
H-AELAALEAELAALEGRRVVVAFAWDKLAALKAKLAALKA-NH2	–	–	42
H-AELAALEAELAALEGGTKMWSLLVDGKLAALKAKLAALKA-OH	Active	–	–
H-AELAALEAELAALEGYEGQFMWLIGKLAALKAKLAALKA-OH	Active	–	–
H-AELAALEAELAALEGWGGLMGWISGKLAALKAKLAALKA-OH	Active	–	–
H-AELAALEAELAALEGWVGMREVWRGKLAALKAKLAALKA-OH	Active	–	–
H-AELAALEAELAALEGKVYMFWTIMGKLAALKAKLAALKA-OH	Active	–	–
H-AELAALEAELAALEGSSERKLVLLGKLAALKAKLAALKA-OH	Active	17%	–
H-AELAALEAELAALEGARSLVAQMTGKLAALKAKLAALKA-OH	Active	–	–
H-AELAALEAELAALEGSVAQLGLLLGKLAALKAKLAALKA-OH	Active	–	–
H-AELAALEAELAALEGLEGKSMGFIGKLAALKAKLAALKA-OH	Active	–	–
H-AELAALEAELAALEGSQDNARSLWGKLAALKAKLAALKA-OH	Active	–	–
H-AELAALEAELAALEGAPCLVMTTAGKLAALKAKLAALKA-OH	Active	–	–
H-AELAALEAELAALEGWVQVAQKVRGKLAALKAKLAALKA-OH	Active	–	–
H-AELAALEAELAALEGSGAWMGSLLGKLAALKAKLAALKA-OH	Active	–	–
CSCC[C@H](NC(=O)[C@@H]1CCCN1C(=O)[C@H](CCC(N)=O)NC(=O)[C@H](CO)NC(=O)CNC(=O)[C@H](Cc1c[nH]c2ccccc12)NC(=O)CNC(=O)[C@H](CCC(=O)O)NC(=O)[C@H](CC(C)C)NC(=O)[C@H](C)NC(=O)[C@H](C)NC(=O)[C@H](CC(C)C)NC(=O)[C@H](CCC(=O)O)NC(=O)[C@H](C)NC(=O)[C@H](CCC(=O)O)NC(=O)[C@H](CC(C)C)NC(=O)[C@H](C)NC(=O)[C@H](C)NC(=O)[C@H](CC(C)C)NC(=O)[C@H](CCC(=O)O)NC(=O)[C@@H](C)N)C(=O)N[C@@H](CC(=O)O)C(=O)N[C@@H](CO)C(=O)N[C@H](C(=O)NCC(=O)N[C@@H](CCCCN)C(=O)N[C@@H](CC(C)C)C(=O)N[C@@H](C)C(=O)N[C@@H](C)C(=O)N[C@@H](CC(C)C)C(=O)N[C@@H](CCCCN)C(=O)N[C@@H](C)C(=O)N[C@@H](CCCCN)C(=O)N[C@@H](CC(C)C)C(=O)N[C@@H](C)C(=O)N[C@@H](C)C(=O)N[C@@H](CC(C)C)C(=O)N[C@@H](CCCCN)C(=O)N[C@@H](C)C(=O)O)C(C)C	Active	–	–
H-AELAALEAELAALEGSRRMWNAYEGKLAALKAKLAALKA-OH	Active	–	–
H-AELAALEAELAALEGFPGRFGLFVGKLAALKAKLAALKA-OH	Active	–	–
H-AELAALEAELAALEGARHFYVQSVGKLAALKAKLAALKA-OH	Active	inactive	–
H-AELAALEAELAALEGWRRRLNNWWGKLAALKAKLAALKA-OH	Active	–	–
CSCC[C@H](NC(=O)[C@@H]1CCCN1C(=O)[C@H](CCC(N)=O)NC(=O)[C@@H]1CCCN1C(=O)CNC(=O)[C@H](CCC(=O)O)NC(=O)[C@H](CC(C)C)NC(=O)[C@H](C)NC(=O)[C@H](C)NC(=O)[C@H](CC(C)C)NC(=O)[C@H](CCC(=O)O)NC(=O)[C@H](C)NC(=O)[C@H](CCC(=O)O)NC(=O)[C@H](CC(C)C)NC(=O)[C@H](C)NC(=O)[C@H](C)NC(=O)[C@H](CC(C)C)NC(=O)[C@H](CCC(=O)O)NC(=O)[C@@H](C)N)C(=O)N[C@@H](Cc1c[nH]c2ccccc12)C(=O)NCC(=O)N[C@@H](CO)C(=O)N[C@@H](Cc1c[nH]c2ccccc12)C(=O)N[C@@H](CCCNC(=N)N)C(=O)NCC(=O)N[C@@H](CCCCN)C(=O)N[C@@H](CC(C)C)C(=O)N[C@@H](C)C(=O)N[C@@H](C)C(=O)N[C@@H](CC(C)C)C(=O)N[C@@H](CCCCN)C(=O)N[C@@H](C)C(=O)N[C@@H](CCCCN)C(=O)N[C@@H](CC(C)C)C(=O)N[C@@H](C)C(=O)N[C@@H](C)C(=O)N[C@@H](CC(C)C)C(=O)N[C@@H](CCCCN)C(=O)N[C@@H](C)C(=O)O	Active	–	–
H-AELAALEAELAALEGLQTMWHSLWGKLAALKAKLAALKA-OH	Active	–	–
H-AELAALEAELAALEGKGTQMWWLLGKLAALKAKLAALKA-OH	Active	–	–
CC(C)C[C@H](NC(=O)[C@H](C)NC(=O)[C@H](C)NC(=O)[C@H](CC(C)C)NC(=O)[C@H](CCC(=O)O)NC(=O)[C@H](C)NC(=O)[C@H](CCC(=O)O)NC(=O)[C@H](CC(C)C)NC(=O)[C@H](C)NC(=O)[C@H](C)NC(=O)[C@H](CC(C)C)NC(=O)[C@H](CCC(=O)O)NC(=O)[C@H](C)N)C(=O)N[C@@H](CCC(=O)O)C(=O)NCC(=O)N[C@@H](CCCNC(=N)N)C(=O)N[C@@H](CCCCN)C(=O)N[C@@H](CC(=O)O)C(=O)N[C@@H](Cc1ccc(O)cc1)C(=O)N[C@@H](Cc1ccccc1)C(=O)N[C@@H](Cc1cnc[nH]1)C(=O)N[C@@H](CC(C)C)C(=O)N[C@@H](Cc1c[nH]c2ccccc12)C(=O)N[C@@H](Cc1cnc[nH]1)C(=O)N[C@@H](CC(=O)O)C(=O)NCC(=O)N[C@@H](CCCCN)C(=O)N[C@@H](CC(C)C)C(=O)N[C@@H](C)C(=O)N[C@@H](C)C(=O)N[C@@H](CC(C)C)C(=O)N[C@@H](CCCCN)C(=O)N[C@@H](C)C(=O)N[C@H](CCCCN)C(=O)N[C@H](CC(C)C)C(=O)N[C@H](C)C(=O)N[C@H](C)C(=O)N[C@H](CC(C)C)C(=O)N[C@H](CCCCN)C(=O)N[C@H](C)C(=O)O	Active	–	–
H-AELAALEAELAALEGVGEFSVSLLGKLAALKAKLAALKA-OH	Active	inactive	–
